Results taken from publication PMC10381309 (Journal of Fungi, 2023).
Values after ≈ are worked out from the molar mass of the structure shown.

Columns and labels:
Format in all cases: cell-based
[1] = tested on: Fonsecaea pedrosoi (CFP 00791); assay: NIH Clinical Collection screening for antifungal activity (growth inhibition, OD 530 nm); details: 10 µM; CFP00791 Fonsecaea pedrosoi isolate; 72–96 h; read-out: % Growth Inhibition
Experimental: These substances are part of the NIH Roadmap Molecular Libraries Screening Centers Network screening library, a collection of chemically diverse substances in Phase I-III clinical trials. Each substance was initially diluted to 1 mM in DMSO and stored at −20 °C until use. […] The final DMSO concentration corresponded to 0.5% v/v. The inoculum was prepared according to the protocol for filamentous fungi proposed by the European Committee on Antimicrobial Susceptibility Testing—EUCAST, with minor modifications. […] After growth, conidia were suspended in 3 mL of sterile distilled water with 0.1% Tween 20, vortexed, and the concentration adjusted to the 0.5 McFarland scale. The suspension was then diluted 1:10 in order to obtain a final working inoculum at 2–5 × 10^5 CFU/mL. Next, 100 µL of the inoculum was added to each well and the plates incubated at 35 °C for 72–96 h. Negative and positive controls consisted of culture medium alone and drug-free culture medium with the fungal inoculum previously described, respectively. Plates were read using a microplate reader (Epoch, Biotek, Wenusky, VT, USA) with a 530 nm filter to obtain the optical density. All plates were also visually read to confirm the equipment data. A calculation was performed to obtain the percentage of inhibition of fungal growth, according to the formula: (1 − (OD1/OD2)) × 100, where OD1 = optical density of the fungus in the presence of the drug; and OD2 = optical density of the growth control drug-free well.

[2] = tested on: Cladophialophora carrionii (CFP 00910); assay: MIC determination (EUCAST, minor modifications); details: C. carrionii
Experimental: (§1) Minimum inhibitory concentrations (MICs) were determined using the method proposed by the European Committee on Antimicrobial Susceptibility Testing (EUCAST), with minor modifications. Hit drugs were serially diluted (80 μM to 0.15625 μM) in RPMI 1640 (twice concentrated, pH 7; supplemented with 2% glucose) buffered with MOPS in 96-well plates. The inoculums of all strains were prepared following the EUCAST protocol. Plates were incubated at 35 °C for 72–96 h. The MIC of the NCC substances was determined as the lowest concentration capable of inhibiting 100% of fungal growth when compared to the growth control well. MIC values were determined in duplicate.

[3] = tested on: Exophiala dermatitidis (ATCC 28869); assay: MIC determination (EUCAST, minor modifications); details: E. dermatitidis
Experimental: as §1

[4] = tested on: Exophiala heteromorpha (ATCC 28180); assay: MIC determination (EUCAST, minor modifications); details: E. heteromorpha
Experimental: as §1

[5] = tested on: Fonsecaea monophora (CFP 00911); assay: MIC determination (EUCAST, minor modifications); details: F. monophora
Experimental: as §1

[6] = tested on: Fonsecaea nubica (CFP 00912); assay: MIC determination (EUCAST, minor modifications); details: F. nubica
Experimental: as §1

[7] = tested on: Fonsecaea pedrosoi (CFP 00791); assay: MIC determination (EUCAST, minor modifications); details: F. pedrosoi
Experimental: as §1

[8] = tested on: Phialophora verrucosa (CFP 00937); assay: MIC determination (EUCAST, minor modifications); details: P. verrucosa
Experimental: as §1

[9] = tested on: Rhinocladiela similis (CFP 00790); assay: MIC determination (EUCAST, minor modifications); details: R. similis
Experimental: as §1

[10] = tested on: Cladophialophora carrionii (CFP 00910); assay: Minimum fungicidal concentration determination; details: C. carrionii
Experimental: The MFC was determined as the lowest drug concentration without fungal growth on Sabouraud agar after five days of incubation at 35 °C.

[11] = tested on: Exophiala dermatitidis (ATCC 28869); assay: Minimum fungicidal concentration determination; details: E. dermatitidis
Experimental: (§2) Minimum fungicidal concentration (MFC) was determined in triplicate by transferring a 5 μL aliquot from each well without fungal growth of the microdilution plates used for MIC determination, as described above, onto 2% glucose Sabouraud agar (Sigma Chemical Corporation). The MFC was determined as the lowest drug concentration without fungal growth on Sabouraud agar after five days of incubation at 35 °C. When the MFC/MIC ratio of a hit drug was 1 or 2, the substance was considered fungicidal against the pathogen. If this ratio was greater than 2, the hit drug was considered to be fungistatic.

[12] = tested on: Exophiala heteromorpha (ATCC 28180); assay: Minimum fungicidal concentration determination; details: E. heteromorpha
Experimental: as §2

[13] = tested on: Fonsecaea monophora (CFP 00911); assay: Minimum fungicidal concentration determination; details: F. monophora
Experimental: as §2

[14] = tested on: Fonsecaea nubica (CFP 00912); assay: Minimum fungicidal concentration determination; details: F. nubica
Experimental: as §2

[15] = tested on: Fonsecaea pedrosoi (CFP 00791); assay: Minimum fungicidal concentration determination; details: F. pedrosoi
Experimental: as §2

[16] = tested on: Phialophora verrucosa (CFP 00937); assay: Minimum fungicidal concentration determination; details: P. verrucosa
Experimental: as §2

[17] = tested on: Rhinocladiela similis (CFP 00790); assay: Minimum fungicidal concentration determination; details: R. similis
Experimental: as §2

VERO cells (ATCC CCL-81) = assay: Cytotoxicity of hit drugs, MTT, 24 h; details: African green monkey
Experimental: VERO cells (ATCC® CCL-81, a kidney tissue derived from a normal adult African green monkey) were cultured in 199 medium with Earle’s salts supplemented with 100 U/mL of penicillin–100 µg/mL of streptomycin (Cultilab LTDA, São Paulo, Brazil) and 10% fetal bovine serum (FBS, Cultilab LTDA, Brazil) in an incubator at 37 °C with 5% CO2. Cells were subcultured in 25 or 75 cm^2 culture flasks once a week and the culture medium was also changed once a week. The cells used in the experiments were from passages 10 to 29 [42]. Cytotoxicity assays to assess cell viability were performed in 96-well plates with 5 × 10^4 cells/well that were exposed to hit drug solutions for 24 h at 37 °C in an incubator with 5% CO2. […]. A solution of 10% Tween 80 solution was used as the positive cellular death control. Wells with VERO cells receiving only the culture medium with or without 1% DMSO were also included as positive cellular growth controls.
The 3-(4,5-dimethylthiazol-2-yl)-2,5-diphenyltetrazolium bromide (MTT, Sigma-Aldrich®, USA) reagent dissolved in PBS, pH 7.4, was used to check cell viability. Results were read at 492 nm on a Thermo Scientific® Multiskan microplate spectrophotometer reader and expressed as percent cell viability in the culture medium after addition of a 10% Tween 80 solution.

- MIC ([2]; Cladophialophora carrionii, 100% growth inhibition, read-out: MIC): 2.5 µM (≈ 0.738 µg/mL)
- MIC ([3]; Exophiala dermatitidis, ATCC28869, 100% growth inhibition, read-out: MIC): 20 µM (≈ 5.91 µg/mL)
- MIC ([4]; Exophiala heteromorpha, ATCC28180, 100% growth inhibition, read-out: MIC): 5 µM (≈ 1.48 µg/mL)
- MIC ([5]; Fonsecaea monophora, 100% growth inhibition, read-out: MIC): 2.5 µM (≈ 0.738 µg/mL)
- MIC ([6]; Fonsecaea nubica, 100% growth inhibition, read-out: MIC): 5 µM (≈ 1.48 µg/mL)
- MIC ([7]; Fonsecaea pedrosoi, 100% growth inhibition, read-out: MIC): 5 µM (≈ 1.48 µg/mL)
- MIC ([8]; Phialophora verrucosa, 100% growth inhibition, read-out: MIC): 5 µM (≈ 1.48 µg/mL)
- MIC ([9]; 100% growth inhibition, read-out: MIC): 5 µM (≈ 1.48 µg/mL)
Structure (SMILES): COC(=O)Nc1nc2ccc(C(=O)c3ccccc3)cc2[nH]1 [Mebendazole]
- inhibition at 10 µM [1]: 83%
- Selectivity Index (SI) ([2]; CC50 Vero 24 h / MIC): 135.59
- Selectivity Index (SI) ([3]; CC50 Vero 24 h / MIC): 16.94
- Selectivity Index (SI) ([4]; CC50 Vero 24 h / MIC): 67.79
- Selectivity Index (SI) ([5]; CC50 Vero 24 h / MIC): 135.59
- Selectivity Index (SI) ([6]; CC50 Vero 24 h / MIC): 67.79
- Selectivity Index (SI) ([7]; CC50 Vero 24 h / MIC): 67.79
- Selectivity Index (SI) ([8]; CC50 Vero 24 h / MIC): 67.79
- Selectivity Index (SI) ([9]; CC50 Vero 24 h / MIC): 67.79
- MFC:MIC Ratio [10]: 1
- fungicidal or fungistatic (MFC/MIC ratio) [10]: fungicidal (When the MFC/MIC ratio of a hit drug was 1 or 2, the substance was considered fungicidal)
- MFC ([10]; Cladophialophora carrionii, read-out: MFC): 2.5 µM (≈ 0.738 µg/mL)
- MFC:MIC Ratio [11]: >4
- MFC ([11]; Exophiala dermatitidis, ATCC28869, read-out: MFC): > 80 µM
- MFC:MIC Ratio [12]: >16
- MFC ([12]; Exophiala heteromorpha, ATCC28180, read-out: MFC): > 80 µM
- MFC:MIC Ratio [13]: 32
- MFC ([13]; Fonsecaea monophora, read-out: MFC): 80 µM (≈ 23.6 µg/mL)
- MFC:MIC Ratio [14]: >16
- MFC ([14]; Fonsecaea nubica, read-out: MFC): > 80 µM
- MFC:MIC Ratio [15]: 1
- fungicidal or fungistatic (MFC/MIC ratio) [15]: fungicidal (When the MFC/MIC ratio of a hit drug was 1 or 2, the substance was considered fungicidal)
- MFC ([15]; Fonsecaea pedrosoi, read-out: MFC): 5 µM (≈ 1.48 µg/mL)
- MFC:MIC Ratio [16]: 2
- fungicidal or fungistatic (MFC/MIC ratio) [16]: fungicidal (When the MFC/MIC ratio of a hit drug was 1 or 2, the substance was considered fungicidal)
- MFC ([16]; Phialophora verrucosa, read-out: MFC): 10 µM (≈ 2.95 µg/mL)
- MFC:MIC Ratio [17]: >16
- MFC ([17]; read-out: MFC): > 80 µM
- CC50 (translated from >100 μg/mL) (VERO cells (ATCC CCL-81)): ~338.98 µM
